According to ChEMBL document CHEMBL1143362, “Development of dual-acting prodrugs for circumventing multidrug resistance” (Bioorg Med Chem Lett, 2009):
Activity calls are given as the source filed them. The calls are words filed in the database; no cut-off is given here.

Legend:
[1] = tested on: MT3; assay: Antitumor activity against adriablastin-resistant human MT3 cells expressing p-glycoprotein xenografted in NMRI nude mouse at 6 mg/kg, iv administered on day 13 and 20; assay type: functional, organism-based; parameters: dose 6 mg/kg
[2] = tested on: Mus musculus; assay: Toxicity in NMRI nude mouse xenografted with adriablastin-resistant human MT3 cells expressing p-glycoprotein assessed as body weight loss at 5 mg/kg, ip administered on day 12, 13, 19, 20 prior to doxorubicin challenge of 6 mg/kg, iv on day 13 and 20; assay type: organism-based; details: in vivo
[3] = tested on: MT3; assay: Potentiation of doxorubicin-induced cytotoxicity in adriablastin-resistant human MT3 cells expressing p-glycoprotein xenografted in NMRI nude mouse at 5 mg/kg, ip administered on day 12, 13, 19, 20 prior to doxorubicin challenge of 6 mg/kg, iv on day 13 and 20; assay type: functional, organism-based
[4] = tested on: Mus musculus; assay: Toxicity in nude mouse assessed as body weight change at 100.8 mg/kg, iv measured daily for 13 days; assay type: organism-based; parameters: dose 100.8 mg/kg, route intravenous; details: in vivo, 312 h

`COc1cccc2c1C(=O)c1c(O)c3c(c(O)c1C2=O)C[C@@](O)(C(=O)CO)C[C@@H]3O[C@H]1C[C@H](N)[C@H](O)[C@H](C)O1` was tested, and the Activity [1] was “inactive”.

In the case of `CCOC/C=C/c1ccc(-c2nc(-c3ccc(N(C)C)cc3)c(-c3ccc(NC(=O)CCN)cc3)[nH]2)cc1`, the Activity [2] is reported as -23% and the Activity [3] is reported as “Active”.

For `CCOC/C=C/c1ccc(-c2nc(-c3ccc(N(C)C)cc3)c(-c3ccc(NC(=O)CCNC(=O)OCc4ccc(NC(=O)[C@H](CCCCN)NC(=O)[C@H](Cc5ccccc5)NC(=O)CC[C@H](NC(=O)CCCCCN5C(=O)C=CC5=O)C(=O)N[C@@H](Cc5ccccc5)C(=O)N[C@@H](CCCCN)C(=O)Nc5ccc(COC(=O)N[C@H]6C[C@H](O[C@H]7C[C@@](O)(C(=O)CO)Cc8c(O)c9c(c(O)c87)C(=O)c7c(OC)cccc7C9=O)O[C@@H](C)[C@H]6O)cc5)cc4)cc3)[nH]2)cc1.O=C(O)C(F)(F)F.O=C(O)C(F)(F)F`, the Activity [4] was “Non-toxic”.
